The source of these data is patent US20250084071A1, “COMPOUNDS AND COMPOSITIONS FOR TREATING CONDITIONS ASSOCIATED WITH STING ACTIVITY” (NOVARTIS PHARMA AG, priority 2022, published 2025).

pEC50: −log10 of the molar value.

T1 sequence (Q86WV6 whole entry R71H/G230A/H232R/R293Q): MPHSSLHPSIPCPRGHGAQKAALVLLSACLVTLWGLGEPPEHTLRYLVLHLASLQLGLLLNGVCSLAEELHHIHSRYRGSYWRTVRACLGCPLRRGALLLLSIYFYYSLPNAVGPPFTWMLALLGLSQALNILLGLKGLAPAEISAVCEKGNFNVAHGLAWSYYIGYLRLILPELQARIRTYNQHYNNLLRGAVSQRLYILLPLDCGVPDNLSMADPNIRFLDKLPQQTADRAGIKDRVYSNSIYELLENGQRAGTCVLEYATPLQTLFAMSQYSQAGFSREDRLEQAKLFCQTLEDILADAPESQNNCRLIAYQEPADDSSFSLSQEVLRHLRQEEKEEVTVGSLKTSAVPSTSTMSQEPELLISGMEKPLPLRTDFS

This assay concerns the target T1, STING (Homo sapiens, UniProt Q86WV6, G230A/H232R/R293Q/R71H).
T1 construct: host or cells: THP1-Dual KO-IFNAR2 cells
In words: STING reporter assay in THP1-Dual KO-IFNAR2 cells (luciferase reporter, 2′3′cGAMP stimulation). Type of assay: cell-based. The settings on record: 2′3′cGAMP 15 μM, 24 h, luciferase reporter activity, GeoMean, read-out: Pharmaron, THP1_IFNAR2 STING 24 h Luci Normalized: GeoMean EC50. On the procedure:
STING pathway activation by the compounds described herein was measured using THP1-Dual™ cells (KO-IFNAR2).
THP1-Dual™ KO-IFNAR2 Cells (obtained from invivogen) were maintained in RPMI, 10% FCS, 5 ml P/S, 2 mM L-glut, 10 mM Hepes, and 1 mM sodium pyruvate. Compounds were spotted in empty 384 well tissue culture plates (Greiner 781182) by Echo for a final concentration of 0.0017-100 μM. Cells were plated into the TC plates at 40 μL per well, 2×10E6 cells/mL. For activation with STING ligand, 2′3′cGAMP (MW 718.38, obtained from Invivogen), was prepared in Optimem media.
The following solutions were prepared for each 1×384 plate: • Solution A: 2 mL Optimem with one of the following stimuli: • […] of 10 mM 2′3′cGAMP→150 μM stock • Solution B: 2 mL Optimem with 60 μL Lipofectamine 2000→Incubate 5 min at RT • 2 mL of solution A and 2 ml Solution B was mixed and incubated for 20 min at room temperature (RT). 20 μL of transfection solution (A+B) was added on top of the plated cells, with a final 2′3′cGAMP concentration of 15 μM. The plates were then centrifuged immediately at 340 g for 1 minute, after which they were incubated at 37° C., 5% CO2, >98% humidity for 24 h. Luciferase reporter activity was then measured. EC50 values were calculated by using standard methods known in the art.
Luciferase reporter assay: 10 μL of supernatant from the assay was transferred to white 384-plate with flat bottom and squared wells. One pouch of QUANTI-Luc™ Plus was dissolved in 25 mL of water. 100 μL of QLC Stabilizer per 25 mL of QUANTI-Luc™ Plus solution was added. 50 μL of QUANTI-Luc™ Plus/QLC solution per well was then added. Luminescence was measured on a Platereader (e.g., Spectramax I3X (Molecular Devices GF3637001)).
Luciferase reporter activity was then measured. EC50 values were calculated by using standard methods known in the art.
For the compound `O=S(=O)(Nc1c[nH]c2ccc(CCOc3ccc(C(F)(F)F)cc3)cc12)c1cccc(Cl)n1` [Compound 104, 6-chloro-N-(5-(2-(4-(trifluoromethyl)phenoxy)ethyl)-1H-indol-3-yl)pyridine-2-sulfonamide], the negative logarithm of the EC50 (pEC50) – broadly, the EC50 on a negative log10 scale, so that one unit is a factor of ten – is 6.00 to 6.70.
The same measure for `O=S(=O)(Nc1c[nH]c2ccc(CCOc3ccc(C(F)(F)F)cc3)cc12)C1CCOCC1` [Compound 105, N-(5-(2-(4-(trifluoromethyl)phenoxy)ethyl)-1H-indol-3-yl)tetrahydro-2H-pyran-4-sulfonamide]: 6.00 to 6.70; for `O=S(=O)(CCC(F)(F)F)Nc1c[nH]c2ccc(CCOc3ccc(C(F)(F)F)cc3)cc12` [Compound 106, 3,3,3-trifluoro-N-(5-(2-(4-(trifluoromethyl)phenoxy)ethyl)-1H-indol-3-yl)propane-1-sulfonamide]: 6.70 to 7.40; for `Cn1ccc(S(=O)(=O)Nc2c[nH]c3ccc(CCOc4ccc(C(F)(F)F)cc4)cc23)n1` [Compound 107, 1-methyl-N-(5-(2-(4-(trifluoromethyl)phenoxy)ethyl)-1H-indol-3-yl)-1H-pyrazole-3-sulfonamide]: 6.00 to 6.70.
The same measure for `O=S(=O)(CC1CCOCC1)Nc1c[nH]c2ccc(CCOc3ccc(C(F)(F)F)cc3)cc12` [Compound 108, 1-(tetrahydro-2H-pyran-4-yl)-N-(5-(2-(4-(trifluoromethyl)phenoxy)ethyl)-1H-indol-3-yl)methanesulfonamide]: 6.00 to 6.70.
The same measure for `COCCS(=O)(=O)Nc1c[nH]c2ccc(CCOc3ccc(C(F)(F)F)cc3)cc12` [Compound 109, 2-methoxy-N-(5-(2-(4-(trifluoromethyl)phenoxy)ethyl)-1H-indol-3-yl)ethane-1-sulfonamide]: 6.00 to 6.70; for `Cn1cc(S(=O)(=O)Nc2c[nH]c3ccc(OCCc4ccc(C(F)(F)F)cc4)cc23)cn1` [Compound 110, 1-methyl-N-(5-(4-(trifluoromethyl)phenethoxy)-1H-indol-3-yl)-1H-pyrazole-4-sulfonamide]: 6.70 to 7.40; for `Cn1cnc(S(=O)(=O)Nc2c[nH]c3ccc(CCOc4ccc(C(F)(F)F)cc4)cc23)c1` [Compound 111, 1-methyl-N-(5-(2-(4-(trifluoromethyl)phenoxy)ethyl)-1H-indol-3-yl)-1H-imidazole-4-sulfonamide]: 6.00 to 6.70.
In the case of `O=S(=O)(CCC1CC1)Nc1c[nH]c2ccc(CCOc3ccc(C(F)(F)F)cc3)cc12` [Compound 112, 2-cyclopropyl-N-(5-(2-(4-(trifluoromethyl)phenoxy)ethyl)-1H-indol-3-yl)ethane-1-sulfonamide], the pEC50 was 6.00 to 6.70.
The same measure for `CCS(=O)(=O)Nc1c[nH]c2ccc(CCOc3ccc(C(F)(F)F)cc3)cc12` [Compound 113, N-(5-(2-(4-(trifluoromethyl)phenoxy)ethyl)-1H-indol-3-yl)ethanesulfonamide]: 6.00 to 6.70; for `O=S(=O)(CC1CCC1)Nc1c[nH]c2ccc(CCOc3ccc(C(F)(F)F)cc3)cc12` [Compound 114, 1-cyclobutyl-N-(5-(2-(4-(trifluoromethyl)phenoxy)ethyl)-1H-indol-3-yl)methanesulfonamide]: 6.00 to 6.70; for `O=S(=O)(Nc1c[nH]c2ccc(OCCc3ccc(C(F)(F)F)cc3)cc12)C1CCOCC1` [Compound 115, N-(5-(4-(trifluoromethyl)phenethoxy)-1H-indol-3-yl)tetrahydro-2H-pyran-4-sulfonamide]: 6.00 to 6.70.
The same measure for `Cn1ccc(S(=O)(=O)Nc2c[nH]c3ccc(OCCc4ccc(C(F)(F)F)cc4)cc23)n1` [Compound 116, 1-methyl-N-(5-(4-(trifluoromethyl)phenethoxy)-1H-indol-3-yl)-1H-pyrazole-3-sulfonamide]: 6.00 to 6.70.
Take `O=S(=O)(CC1CCCO1)Nc1c[nH]c2ccc(OCCc3ccc(C(F)(F)F)cc3)cc12` (centres unmarked) [Compound 117, 1-(tetrahydrofuran-2-yl)-N-(5-(4-(trifluoromethyl)phenethoxy)-1H-indol-3-yl)methanesulfonamide]: the pEC50 is 6.00 to 6.70.
In the case of `Cn1cnc(S(=O)(=O)Nc2c[nH]c3ccc(OCCc4ccc(C(F)(F)F)cc4)cc23)c1` [Compound 118, 1-methyl-N-(5-(4-(trifluoromethyl)phenethoxy)-1H-indol-3-yl)-1H-imidazole-4-sulfonamide], the pEC50 is 6.00 to 6.70.
In the case of `O=S(=O)(CC1CCC1)Nc1c[nH]c2ccc(OCCc3ccc(C(F)(F)F)cc3)cc12` [Compound 119, 1-cyclobutyl-N-(5-(4-(trifluoromethyl)phenethoxy)-1H-indol-3-yl)methanesulfonamide], the pEC50 was 6.70 to 7.40.
The same measure for `O=S(=O)(CCC(F)(F)F)Nc1c[nH]c2ccc(OCCc3ccc(C(F)(F)F)cc3)cc12` [Compound 120, 3,3,3-trifluoro-N-(5-(4-(trifluoromethyl)phenethoxy)-1H-indol-3-yl)propane-1-sulfonamide]: 6.00 to 6.70.
The same measure for `CCS(=O)(=O)Nc1c[nH]c2ccc(OCCc3ccc(C(F)(F)F)cc3)cc12` [Compound 121, N-(5-(4-(trifluoromethyl)phenethoxy)-1H-indol-3-yl)ethanesulfonamide]: 6.00 to 6.70; for `O=S(=O)(Cc1ccccc1)Nc1c[nH]c2ccc(OCCc3ccc(C(F)(F)F)cc3)cc12` [Compound 122, 1-phenyl-N-(5-(4-(trifluoromethyl)phenethoxy)-1H-indol-3-yl)methanesulfonamide]: 6.70 to 7.40; for `COCCS(=O)(=O)Nc1c[nH]c2ccc(OCCc3ccc(C(F)(F)F)cc3)cc12` [Compound 123, 2-methoxy-N-(5-(4-(trifluoromethyl)phenethoxy)-1H-indol-3-yl)ethane-1-sulfonamide]: 6.00 to 6.70.
The same measure for `O=S(=O)(CC1CC1)Nc1c[nH]c2ccc(OCCc3ccc(C(F)(F)F)cc3)cc12` [Compound 124, 1-cyclopropyl-N-(5-(4-(trifluoromethyl)phenethoxy)-1H-indol-3-yl)methanesulfonamide]: 6.70 to 7.40; for `O=S(=O)(CC1CCCO1)Nc1c[nH]c2ccc(CCOc3ccc(C(F)(F)F)cc3)cc12` (centres unmarked) [Compound 125, 1-(tetrahydrofuran-2-yl)-N-(5-(2-(4-(trifluoromethyl)phenoxy)ethyl)-1H-indol-3-yl)methanesulfonamide]: 6.00 to 6.70; for `O=S(=O)(CC1CC1)Nc1c[nH]c2ccc(CCOc3ccc(C(F)(F)F)cc3)cc12` [Compound 126, 1-cyclopropyl-N-(5-(2-(4-(trifluoromethyl)phenoxy)ethyl)-1H-indol-3-yl)methanesulfonamide]: 6.00 to 6.70.
